Reference: ChEMBL document CHEMBL1131692, “A study of novel antiallergic agents with eosinophilic infiltration inhibiting action” (Bioorg Med Chem Lett, 1999)

Organism: Cavia porcellus
Assay: Evaluated for antihistamine action using guinea pig ilea
Type: functional
Settings: read-out: pA2 (converted)

Cc1cc(OCCCCCN2CCN(C(c3ccccc3)c3ccccc3)CC2)c(C)c(C)c1O and Cc1cc(OCCCCCCN2CCN(C(c3ccccc3)c3ccccc3)CC2)c(C)c(C)c1O are within 1.5-fold of each other in Kb: 151 nM for the first, 155 nM for the second.

Cc1cc(OCCCCN2CCN(C(c3ccccc3)c3ccccc3)CC2)c(C)c(C)c1O and Cc1cc(OCCCN2CCN(C(c3ccccc3)c3ccccc3)CC2)c(C)c(C)c1O are within 1.5-fold of each other in Kb: 77.6 nM for the first, 74.1 nM for the second.

Going from Cc1cc(OCCN2CCN(C(c3ccccc3)c3ccccc3)CC2)c(C)c(C)c1O to Cc1cc(OCCCCCCCCN2CCN(C(c3ccccc3)c3ccccc3)CC2)c(C)c(C)c1O, the Kb rises from 117 nM to 275 nM (2.4-fold).

Compared with Cc1cc(OCCCCCCCCCCN2CCN(C(c3ccccc3)c3ccccc3)CC2)c(C)c(C)c1O, O=c1[nH]c2ccccc2n1CCCN1CCN(C(c2ccccc2)c2ccccc2)CC1 [OXATOMIDE] is 8.9-fold lower in Kb: 407 nM for the first, 45.7 nM for the second.
